Test results reported in article PMC7617869, “Molecular glues that inhibit deubiquitylase activity and inflammatory signaling” (Nature Structural & Molecular Biology, 2025).
Where “and” joins values, the source holds several entries; their conditions need not be identical. Equal values may be shown once.

Legend:
Format in all cases: cell-based, human
[1] = tested on: ISG expression in MCF10A Cas9 cells expressing BRCC45 WT; experiment: MCF10A BRCC45 WT ISG expression (RT–qPCR); parameters: scale not given here; settings: BRCC45 KO+ BRCC45 WT; replicate values
Method: Supplementary Protocols 1. Experimental procedures for cell biology experiments. […]
Media supplements including human insulin solution (Santa Cruz Biotechnology, #sc-360248), cholera toxin from vibrio (Sigma Aldrich, #C8052-2MG), recombinant human EGF (PeproTech, #AF-100-15-100µg), hydrocortisone (Sigma-Aldrich, #H-0888) were used to grow MCF10A cells. The 4–12% Bis-Tris SDS-PAGE gels, cell culture media, horse serum and other materials for tissue culture were purchased from Invitrogen. LipoD293 (SigmaGen, #SL100668) was used for all the transfections to generate knock out cell lines.
Immortalised breast epithelial cell line MCF10A were cultured in 10 cm plates with Dulbecco’s Modified Eagle Medium (DMEM) + F-12 (1:1) supplemented with 5% horse serum, 100 ng/mL cholera toxin, 10 […]
Real-time quantitative PCR
1x10^5 MCF10A cells were cultured as described above and seeded into 6 well plates. Cells were left to reach ultra-confluence. Once confluent, cells were washed with PBS and starved for 30 minutes in 2 mL DMEM + F-12 (1:1) supplemented with 1% horse serum. After 30 minutes cells were pre-treated with either DMSO (0.1%) (Control and IFN only) or BRISC inhibitor (2.5 µM) for 15 minutes. After 15 minutes, hIFN2α (75 ng/mL) was added to the media and mixed. Cells were treated for 4 hours. Cells were washed with ice cold PBS and scraped with cell scrapers into 350 µL RNAlater buffer and RNA […]
#79254). Isolated RNA was quantified using a Nanodrop spectrophotometer. RNA was converted into cDNA and the complementary DNA was used for real-time quantitative PCR analysis of expression of interferon stimulated genes (ISG15, IFIT1, IFIT2, IFITM1, CXCL10 and RNA18S) using an Applied Biosystems Quantstudio 6 RT-PCR system. All experiments were carried out in triplicate.

[2] = tested on: IFNAR1 cell surface levels in sgROSA MCF10A cells; experiment: MCF10A sgROSA IFNAR1 cell surface levels (FACS)
Method: To study the direct effect of BRISC DUB inhibitors, IFNAR1 surface levels were measured using flow cytometry (FACS) analysis. For this purpose, MCF10A WT and MCF10A BRCC45 KO cells expressing […]
BRCC45 WT or BRCC45 R137A were used. […]
minutes prior to the addition of 50 ng/mL of hIFN-Iα for various time points (45 minutes and 90 minutes).
After IFN treatment, cells were dissociated from plate using cell dissociation Buffer (ThermoFisher Scientific, #13150016) and were stained with LIVE/DEAD™ Fixable Violet Dead Cell Stain Kit, for 405 nm excitation (ThermoFisher Scientific, #L34963) for 30 minutes, as per the kit protocol. The cells were then washed using FACS buffer (DPBS, 1% BSA, 2 mM EDTA, 0.09% sodium azide) and transferred to 96-well round bottom plates. Resuspended cells were divided into three repeats for each sample, each was surface stained for 1 hour at 4 °C with: 1. Human IFN-alpha/beta R1 Antibody (R&D systems, #MAB245), 2. Mouse IgG1 Isotype Control (R&D systems, #MAB002), 3. FACS buffer (control cells).
Following incubation, cells were washed once with FACS buffer and were labelled for 30 minutes at 4 °C with either Biotin-SP-conjugated AffiniPure Donkey Anti-Mouse IgG (H+L) (Jackson Immunoresearch Laboratories) for samples 1 and 2 or with FACS buffer for sample 3. Cells were washed twice with FACS buffer and were labelled for 15 minutes at 4 °C with either R-Phycoerythrin-conjugated Streptavidin (Jackson Immunoresearch Laboratories) for samples 1 and 2 or with FACS buffer for sample 3. Cells were washed 3 times with FACS buffer and were analysed by FACS (MACSQuant, Miltenyi Biotec). For each sample from group 1 the Geo mean fluorescence intensity (MFI) of its isotype sample was reduced. IFNAR1 cell surface percentage was calculated by 100*(MFI

[3] = tested on: IFN-stimulated response elements (ISRE) in THP-1 cells; experiment: THP-1 ISRE luciferase reporter, IFNα2 stimulation; settings: IFN + compound; replicate values
Method: THP-1 in vitro experiments
THP-1-DualTM cells (InvivoGen), derived from a human monocytic cell line, isolated from a patient with acute monocytic leukaemia, were cultured as per manufacturer’s guidance. Cells were seeded at 1x10^6 cells/mL in RPMI1640 media containing 10% fetal bovine serum (FBS), 1% penicillin-streptomycin (PS) (Gibco Laboratories) with DMSO (0.1%) (control) or in media containing JMS-175- […]
ng/mL) (Merck Life Science), ODN 2216 (1 µM) (Miltenyi Biotec), or Poly:IC (1 µg/mL) (InvivoGen).
Tofacitinib (Cambridge Biosciences) at 0.4 µM was used for comparison against a known JAK inhibitor.
Cells were centrifuged at 300 g for 5 minutes. Supernatant was removed and subjected to simultaneous study of the NF -κB pathway, by monitoring the activity of secreted alkaline phosphatase reporter (SEAP), and the IRF pathway, by assessing the activity o f a secreted Lucia luciferase using QUANTI - Blue ™ Solution and QUANTI -Luc™ 4 Lucia/Gaussia (InvivoGen), respectively, as per manufacturer’s instructions. Pelleted cells were used for FACS analysis using IFNα/β R1 APC-conjugated antibody or isotype control (Biotechne, FAB245A and IC002A), or unstained staining procedure with and without Zombie GreenTM (Biolegend). Samples were analysed using CytoFlex LX (Beckman) (50,000 live cells per condition). Median fluorescence intensity for APC channel gated on single cell live cells was analysed and compared as a percentage to control (no stimulation condition). […]

[4] = IFN + compound, three replicates
[5] = sgROSA cells, IFN 50 ng/ml, 5 μM, 90 min

SMILES	ISG expression (Fig. 5b) [1]	ISG expression (Fig. 5c) [1]	ISG expression (Fig. 5e) [1]	ISG expression (Fig. 5f) [1]	ISG expression (Fig. 5d) [1]	IFNAR1 cell surface levels [2, 4]	ISRE luciferase reporter signal (Fig. 5a) [3]	IFNAR1 cell surface levels [2, 5]
Cn1cc(NC(=O)c2c(Cl)cccc2Cl)c(C(=O)NC2CCN(C(=O)c3c(Cl)cccc3Cl)CC2)n1 [AP-5-145]	0.8808 and 1 and 0.9871 and 1.027 and 0.974	0.8403 and 0.921 and 1.057 and 1.089 and 1.101	0.7343 and 0.7561 and 0.8094 and 1.106 and 1.138	0.7564 and 0.7183 and 0.7628 and 1.249 and 0.9766	1.013 and 1.064 and 1.1762 and 1.007 and 0.9192	50.5911 and 49.9799 and 55.4831	5071.67 and 5115.33 and 6389 and 6090.67	
O=C(NC1CCNCC1)c1nn(C(=O)c2c(Cl)cccc2Cl)cc1NC(=O)c1c(Cl)cccc1Cl [JMS-175-2]	0.5319 and 0.5863 and 0.5604 and 0.6288 and 0.7746	0.5095 and 0.5499 and 0.6199 and 0.6187 and 0.6726	0.6564 and 0.7321 and 0.7949 and 0.5784 and 0.6638	0.7407 and 0.6852 and 0.6633 and 0.7235 and 0.5173	0.4933 and 0.4932 and 0.5473 and 0.4528 and 0.6627	40.6849 and 39.7065 and 39.3396	2914 and 3263.67 and 4737.67 and 4742.67	reduction in IFNAR1 cell surface levels
O=C(NC1C2CNCC21)c1nn(C(=O)c2c(Cl)cccc2Cl)cc1NC(=O)c1c(Cl)cccc1Cl (centres unmarked) [FX-171-C]	0.4458 and 0.5019 and 0.5077 and 0.4274 and 0.4977	0.4481 and 0.428 and 0.4516 and 0.3326 and 0.4475	0.653 and 0.6751 and 0.6387 and 0.3593 and 0.4619	0.6515 and 0.6181 and 0.6111 and 0.3694 and 0.504	0.3965 and 0.3703 and 0.3895 and 0.4078 and 0.5134	42.0302 and 41.4187 and 41.1741	3973.33 and 4177.33 and 5441.67 and 5023.67	reduction in IFNAR1 cell surface levels
